Laboratory results: patent US9284281B2, “Indication of naphtho[2,3-F]quinoxaline-7,12-dione compound in alleviating pain” (NATIONAL CENTRAL UNIVERSITY, priority 2014, dated 2016)

How the values were obtained:
Format in all cases: in vivo
[1] = tested on: CD-1 mice; test: Nociceptive pain: acute pain induced by pH 5.0 acid solution, mechanical hyperalgesia by von Frey filaments; conditions: for paw withdrawal threshold (PWT): control 4.0±0 g; for effective dosage: intraplantar, acute pain induced by acid solution
Description: Naphtho[2,3-f]quinoxaline-7,12-dione compound was intraplantarly injected into the right hind paws of 8 to 12-week-old CD-1 mice. 5 minutes after the injection, 25 μL of pH 5.0 acid solution was intraplantarly injected into each of the mice. About 60 minutes later, the mice were directly tested with the hypersensitivity to mechanical stimuli using von Frey filaments (Touch-Test North Coast Medical, Inc., Margan Hill, Calif.). The control group was conducted under the same conditions except it was treated with a compound-free saline. The results are shown in FIG. 1, where the injection of 25 μL of the pH 5.0 acid solution induced mechanical hyperalgesia in the right hind paw of the mice, and the paw withdrawal threshold (PWT) of these mice was 1.1±0.065 g. By injecting 2.2 μg/kg of the naphtho[2,3-f]quinoxaline-7,12-dione (NSC745887, D1) compound intraplantarly into the right hind paws of the mice, the paw withdrawal threshold of those mice recovered to 4.0±0 g (PWT of control group mice was 4.0±0 g).
25 μL of acid solution with a pH of 5.0 was injected into 8 to 12-week-old CD-1 mice in order to induce mechanical hyperalgesia. Mice injected with saline were the control group; the ones that were injected with compound only were compound group; the ones that were injected with only the acid solution were the acid group and those injected with both compound and the acid solution were the acid+compound group.
The above-mentioned 1 M of pH 5.0 solution was prepared by dissolving 1.952 g of 2-(N-morpholino)ethanesulfonic acid (MES) in 10 mL of sterilized secondary water. The pH of the solution was adjusted to 5.0 using 1N NaOH solution. Before injection, pH5.0 was diluted with saline into 10 mM.
(§1) 2.2 μg/kg of the compound was administered to the mice by intraplantar injection about 5 minutes prior to the injection of the acid solution. An hour after the injection of the acid, the hypersensitivity of the mice to mechanical stimuli was measured using von Frey filaments (Touch-Test North Coast Medical, Inc., Margan Hill, Calif.). The mice were placed in transparent plastic chambers (10×8×10 cm) on a metal mesh floor at least 30 minutes per day for 2 days to acclimatize them to the testing room prior to the test. 60 minutes after the mice were administered with the compound, the mechanical hyperalgesia was assessed through the measurement of paw withdrawal frequencies by a sequential series of von Frey filaments of weights 0.6, 1.0, 1.4, 2.0 and 4.0 g applied perpendicularly to the plantar surface of the paw. The paw was briefly stimulated with force sufficient to slightly bend the filaments and a single trial consisted of repeated applications of the von Frey filaments five times, each application lasting for about 5 seconds. The occurrence of paw withdrawal resulting from the stimulation or removing the stimulation for each trial was quantified as a percentage response frequency for each filament. When the frequency was more than 50%, the weight of the von Frey filaments was determined as the paw withdrawal threshold (PWT). To make sure all the mice were under normal physical conditions, all housing conditions complied with general feeding standards, and the temperature and illumination were maintained in a suitable range.

[2] = tested on: CD-1 mice; test: Neuropathic pain: chronic constriction injury (CCI) of the sciatic nerve, mechanical hyperalgesia by von Frey filaments; conditions: for paw withdrawal threshold (PWT): one week after CCI
Description: The assessment of the effectiveness of the compound for alleviating neuropathic pain used the animal model of chronic constriction injury (CCI) of the sciatic nerve, which was established by Bennett and Xie (1988). After the surgery, the mice developed long-lasting hypersensitivity to mechanical stimuli (chronic mechanical hyperalgesia), even being lightly touched. The mechanical hyperalgesia test was used to evaluate the analgesic effect of the compound.
The mice, after a week following the surgery, were intraplantarly injected with a series of different dosages of the naphtho[2,3-f]quinoxaline-7,12-dione compound, […], or the mice were injected with 2.2 μg/kg of compound intrathecally, or with 43 μg/kg of the compound intraperitoneally. The hypersensitivity to mechanical stimuli was measured using von Frey filaments at 60 minutes after the injection. The mice injected with saline following surgery were the control group and the other mice injected with gabapentin following surgery were the positive control group.
as §1
According to the method described by Bennett and Xie, Pain, 1988, 33, 87-107, 8 to 12-week-old CD-1 mice were subjected to the chronic constriction injury (CCI) of the sciatic nerve, which is an animal model inducing chronic neuropathic pain. To anesthetize the mice, each of the mice was injected with 240 mg/kg of 2,2,2-tribromoethanol (Avertin). Then three ligatures were loosely tied around the sciatic nerve of the mouse with chromic gut. The surgical procedure for the Sham (non ligation) control group was identical to that mentioned above except that the sciatic nerves were not ligated. A week after the mice in the experimental (CCI+compound) group had chronic constriction injury of sciatic nerves, the compound was intraplantarly, intrathecally, or intraperitoneally injected into the mice. 60 minutes after the injection, the mice were directly subjected to the hypersensitivity test to mechanical stimuli. The mice under the surgery treated with saline were the CCI group; the mice treated with gabapentin were the positive control (CCI+Gabapentin) group.

[3] = tested on: mice; test: Inflammatory pain: chronic inflammatory pain induced by Complete Freund's Adjuvant (CFA), mechanical hyperalgesia by von Frey filaments
Description: When 50% CFA was intraplantarly injected into the mouse, paw edema and chronic mechanical hyperalgesia were developed in the tested mice. Different dosages of the naphtho[2,3-f]quinoxaline-7,12-dione compound, 0.22, 2.2, 22 μg/kg were intraplantarly injected into mouse hindpaw, followed by 50% CFA injection. At 60 minutes after the CFA injection, the hypersensitivity of the mice to mechanical stimuli was measured using von Frey filaments.
as §1
To induce paw edema and chronic inflammatory pain, 25 μL of 50% Complete Freund's Adjuvant (CFA) in saline was intraplantarly injected into the right hind paw of the mouse. […] 60 minutes after the CFA injection, the hypersensitivity to mechanical stimuli was measured using von Frey filaments.

[4] = 2.2 μg/kg intraplantar once every week for three weeks, FIG. 3

O=C1c2ccccc2C(=O)c2c1ccc1[nH]c(=O)c(=O)[nH]c21 [D2, naphtho[2,3-f]quinoxaline-2,3,7,12(1H,4H)-tetraone]
paw withdrawal threshold (PWT) ([1]; 24.3 μg/kg intraplantar, then pH 5.0 acid solution, FIG. 1C): 4.0 ± 0 g
effective dosage [1]: 24.3 µg/kg
paw withdrawal threshold (PWT) ([2]; 24.3 μg/kg intraplantar, FIG. 2B): 2.0 ± 0 g
paw withdrawal threshold (PWT) ([3]; 24.3 μg/kg intraplantar before CFA, FIG. 4B): 1.0 g

Cc1nc2ccc3c(c2nc1C)C(=O)c1ccccc1C3=O [C3, 2,3-dimethylnaphtho[2,3-f]quinoxaline-7,12-dione]
paw withdrawal threshold (PWT) ([1]; 24 μg/kg intraplantar, then pH 5.0 acid solution, FIG. 1B): 2.0 ± 0 g
effective dosage [1]: 24 µg/kg
paw withdrawal threshold (PWT) ([2]; 24 μg/kg intraplantar, FIG. 2B): 1.4 g
paw withdrawal threshold (PWT) ([3]; 24 μg/kg intraplantar before CFA, FIG. 4B): 1.4 g

NCC1(CC(=O)O)CCCCC1 [gabapentin, reference compound]
dose required to inhibit chronic mechanical hyperalgesia caused by CCI ([2]; intraperitoneal injection): at least 15,000 μg/kg

O=C1c2ccccc2C(=O)c2c1ccc1nccnc21 [D1, naphtho[2,3-f]quinoxaline-7,12-dione]
paw withdrawal threshold (PWT) ([1]; 2.2 μg/kg intraplantar, 5 min before pH 5.0 acid solution, about 60 min later, acid only 1.1±0.065 g): 4.0 ± 0 g
effective dosage [1]: 2.2 µg/kg
paw withdrawal threshold (PWT), compound without acid solution ([1]; sole injection of the compound without the acid solution, did not induce pain): 4.0 ± 0 g
tolerance to the compound ([2]; 2.2 μg/kg intraplantar once every week for three weeks): no obvious indication that the mice developed tolerance
paw withdrawal threshold (PWT), first week [2, 4]: 3.3 ± 0.67 g
paw withdrawal threshold (PWT), second week [2, 4]: 3.3 ± 0.67 g
paw withdrawal threshold (PWT), third week [2, 4]: 3.0 ± 0.1 g
paw withdrawal threshold (PWT) ([2]; 2.2 μg/kg intraplantar, 60 min after injection, FIG. 2A, CCI 0.9±0.23 g, control 3.6±0.29 g): 3.3 ± 0.67 g
paw withdrawal threshold (PWT) ([2]; 2.2 μg/kg intraplantar, FIG. 2B, CCI 0.9±0.23 g): 2.0 ± 0 g
paw withdrawal threshold (PWT) ([2]; 2.2 μg/kg intrathecal, FIG. 2A): 2.0 g
paw withdrawal threshold (PWT) ([2]; 22 μg/kg intraplantar, FIG. 2A): 3.3 ± 0.67 g
inhibition of mechanical hyperalgesia induced by CCI ([2]; 43 μg/kg intraperitoneal): completely inhibited mechanical hyperalgesia
paw withdrawal threshold (PWT) ([3]; 2.2 μg/kg intraplantar before 50% CFA, 60 min after CFA, FIG. 4A, CFA 0.4±0.033 g, control 3.8±0.171 g): 1.1 ± 0.15 g
paw withdrawal threshold (PWT) ([3]; 22 μg/kg intraplantar before 50% CFA, FIG. 4A): 2.0 ± 0.411 g
paw withdrawal threshold (PWT) ([3]; 22 μg/kg intraplantar before CFA, FIG. 4B, control 3.8±0.171 g): 2.3 g
